SMILES strings stand for the structures.

T1 sequence (P37288 whole entry): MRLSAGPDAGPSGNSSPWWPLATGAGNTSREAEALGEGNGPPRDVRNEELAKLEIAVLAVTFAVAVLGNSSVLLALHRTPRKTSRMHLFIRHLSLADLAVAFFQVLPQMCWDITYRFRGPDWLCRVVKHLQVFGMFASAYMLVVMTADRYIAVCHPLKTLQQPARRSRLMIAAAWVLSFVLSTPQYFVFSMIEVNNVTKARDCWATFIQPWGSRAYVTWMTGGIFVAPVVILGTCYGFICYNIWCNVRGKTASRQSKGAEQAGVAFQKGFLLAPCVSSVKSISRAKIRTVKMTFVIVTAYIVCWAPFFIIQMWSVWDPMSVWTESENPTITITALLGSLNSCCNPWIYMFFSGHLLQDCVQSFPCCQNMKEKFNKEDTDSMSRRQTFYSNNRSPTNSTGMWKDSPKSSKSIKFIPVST

The experiment has as its target T1, human V1a receptor (Homo sapiens, UniProt P37288).
T1 construct: expressed in transfected cells; host or cells: HEK293 cells, transiently transfected; cell membranes
As to the kind of experiment: human V1a receptor binding (3H-Vasopressin SPA, HEK293 membranes). The settings on record: displacement of 4 nM 3H-Vasopressin, membranes of HEK293 cells transiently transfected with human V1a receptor; Ki from IC50 by Cheng-Prussoff. Put shortly: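 Ki derived by Cheng-Prusoff from IC50 curves normalised to specific binding. Serially diluted compounds (in 2% DMSO) competed with 3H-vasopressin (4 nM working solution) for 1 h at room temperature on SPA beads bearing membranes of transiently transfected HEK293 cells; unlabelled vasopressin defined non-specific counts.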
For `O=C1OC2(CCN(C(=O)c3cn(CC(=O)N4CCOCC4)c4cc(Cl)ccc34)CC2)c2ccc(F)cc21` [Example 113, 1′-{[6-Chloro-1-(2-morpholin-4-yl-2-oxoethyl)-1H-indol-3-yl]carbonyl}-5-fluoro-3H-spiro[2-benzofuran-1,4′-piperidin]-3-one], affinity was put at a Ki of 1.1 nM. As for `CN1CCN(C(=O)Cn2cc(C(=O)N3CCC4(CC3)OC(=O)c3cc(F)ccc34)c3ccc(Cl)cc32)CC1` [Example 114, 1′-({6-Chloro-1-[2-(4-methylpiperazin-1-yl)-2-oxoethyl]-1H-indol-3-yl}carbonyl)-5-fluoro-3H-spiro[2-benzofuran-1,4′-piperidin]-3-one], the Ki (in general, a measure of affinity in units of concentration, obtained from inhibition or displacement) was found to be 1.3 nM. Regarding `NC(=O)Cn1cc(C(=O)N2CCC3(CC2)OC(=O)c2cc(F)ccc23)c2ccc(Cl)cc21` [Example 115, 2-{6-Chloro-3-[(5-fluoro-3-oxo-1′H,3H-spiro[2-benzofuran-1,4′-piperidin]-1′-yl)carbonyl]-1H-indol-1-yl}acetamide], the Ki is 10.4 nM. This Ki is about 8-fold higher than that of the molecule before. For the molecule `CNC(=O)Cn1cc(C(=O)N2CCC3(CC2)OC(=O)c2cc(F)ccc23)c2ccc(Cl)cc21` [Example 116, 2-{6-Chloro-3-[(5-fluoro-3-oxo-1′H,3H-spiro[2-benzofuran-1,4′-piperidin]-1′-yl)carbonyl]-1H-indol-1-yl}-N-methylacetamide], affinity was put at a Ki of 1.7 nM. As for `O=C1OC2(CCN(C(=O)c3cn(CC(=O)N4CCNCC4)c4cc(Cl)ccc34)CC2)c2ccc(F)cc21` [Example 117, 1′-{[6-Chloro-1-(2-oxo-2-piperazin-1-ylethyl)-1H-indol-3-yl]carbonyl}-5-fluoro-3H-spiro[2-benzofuran-1,4′-piperidin]-3-one], affinity was put at a Ki of 1.2 nM. The Ki values of the last two molecules are within 1.5-fold of each other. With `CN(C)CCNC(=O)Cn1cc(C(=O)N2CCC3(CC2)OC(=O)c2ccccc23)c2ccc(Cl)cc21` [Example 119, 2-{6-Chloro-3-[(3-oxo-1′H,3H-spiro[2-benzofuran-1,4′-piperidin]-1′-yl)carbonyl]-1H-indol-1-yl}-N-[2-(dimethylamino)ethyl]acetamide], the affinity corresponds to a Ki of 24 nM. Against the preceding molecule, the Ki is about 20-fold higher. For `Cc1cc2c(C(=O)N3CCC4(CC3)OC(=O)c3ccccc34)cn(CC(=O)N(C)C)c2cc1Cl` [Example 120, 2-{6-Chloro-5-methyl-3-[(3-oxo-1′H,3H-spiro[2-benzofuran-1,4′-piperidin]-1′-yl)carbonyl]-1H-indol-1-yl}-N,N-dimethylacetamide], affinity was put at a Ki of 2.7 nM. This Ki is about 8.9-fold lower than that of the molecule before.

Regarding `Cc1c(C(=O)N2CCC3(CC2)OC(=O)c2ccc(OCCO)cc23)c2ccccc2n1Cc1ccccc1` [Example 122, 1′-[(1-benzyl-2-methyl-1H-indol-3-yl)carbonyl]-6-(2-hydroxyethoxy)-3H-spiro[2-benzofuran-1,4′-piperidin]-3-one], the Ki worked out at 5.2 nM. In the case of `Cc1c(C(=O)N2CCC3(CC2)OC(=O)c2ccccc23)c2ccccc2n1Cc1ccccc1` [Example 126, 1′-[(1-Benzyl-2-methyl-1H-indol-3-yl)carbonyl]-3H-spiro[2-benzofuran-1,4′-piperidin]-3-one], the affinity corresponds to a Ki of 3 nM. Compared with the last molecule, the Ki is about 1.7-fold lower. Take `O=C1OC2(CCN(C(=O)c3cn(-c4cc(F)cc(F)c4)c4cc(Cl)ccc34)CC2)c2ccccc21` [Example 127, 1′-{[6-Chloro-1-(3,5-difluorophenyl)-1H-indol-3-yl]carbonyl}-3H-spiro[2-benzofuran-1,4′-piperidin]-3-one]: the affinity corresponds to a Ki of 3 nM. In turn, `O=C1OC2(CCN(C(=O)c3cn(C(=O)c4cc(F)cc(F)c4)c4cc(Cl)ccc34)CC2)c2ccccc21` [Example 130, 1′-{[6-Chloro-1-(3,5-difluorobenzoyl)-1H-indol-3-yl]carbonyl}-3H-spiro[2-benzofuran-1,4′-piperidin]-3-one] gave a Ki of 11.1 nM. The value for `O=C1OC2(CCN(C(=O)c3cn(Cc4cc(F)cc(F)c4)c4cc(Cl)ccc34)CC2)c2ccccc21` [Example 133, 1′-{[6-Chloro-1-(3,5-difluorobenzyl)-1H-indol-3-yl]carbonyl}-3H-spiro[2-benzofuran-1,4′-piperidin]-3-one] was 0.9 nM. `O=C1OC2(CCN(C(=O)c3cn(Cc4cccc(F)c4)c4cc(Cl)ccc34)CC2)c2ccccc21` [Example 134, 1′-{[6-Chloro-1-(3-fluorobenzyl)-1H-indol-3-yl]carbonyl}-3H-spiro[2-benzofuran-1,4′-piperidin]-3-one] registered a Ki of 1 nM. `O=C(Cn1cc(C(=O)N2CCC3(CC2)OC(=O)c2ccccc23)c2ccc(Cl)cc21)c1cccc(F)c1` [Example 135, 1′-({6-Chloro-1-[2-(3-fluorophenyl)-2-oxoethyl]-1H-indol-3-yl}carbonyl)-3H-spiro[2-benzofuran-1,4′-piperidin]-3-one] returned a Ki of 1.8 nM.

As to `O=C(Cn1cc(C(=O)N2CCC3(CC2)OC(=O)c2ccccc23)c2ccc(Cl)cc21)c1cc(F)ccc1F` [Example 136, 1′-({6-Chloro-1-[2-(2,5-difluorophenyl)-2-oxoethyl]-1H-indol-3-yl]carbonyl)-3H-spiro[2-benzofuran-1,4′-piperidin]-3-one], the Ki is 3 nM. Molecule `O=C1OC2(CCN(C(=O)c3cn(Cc4cc(F)cc(F)c4)c4cc(Cl)ccc34)CC2)c2ccc(F)cc21` [Example 142, 1′-{[6-Chloro-1-(3,5-difluorobenzyl)-1H-indol-3-yl]carbonyl}-5-fluoro-3H-spiro[2-benzofuran-1,4′-piperidin]-3-one] had a Ki of 0.6 nM. As to `O=C1OC2(CCN(C(=O)c3cn(Cc4cccc(F)c4)c4cc(Cl)ccc34)CC2)c2ccc(F)cc21` [Example 143, 1′-{[6-Chloro-1-(3-fluorobenzyl)-1H-indol-3-yl]carbonyl}-5-fluoro-3H-spiro[2-benzofuran-1,4′-piperidin]-3-one], the Ki came out at 1 nM.

In turn, `O=C(Cn1cc(C(=O)N2CCC3(CC2)OC(=O)c2cc(F)ccc23)c2ccc(Cl)cc21)c1cccc(F)c1` [Example 144, 1′-({6-Chloro-1-[2-(3-fluorophenyl)-2-oxoethyl]-1H-indol-3-yl}carbonyl)-5-fluoro-3H-spiro[2-benzofuran-1,4′-piperidin]-3-one] displayed a Ki of 2 nM. Under `O=C1OC2(CCN(C(=O)c3cn(Cc4cc(F)cc(F)c4)c4cc(Cl)ccc34)CC2)c2ccc(Br)cc21` [Example 150, 5-Bromo-1′-{[6-chloro-1-(3,5-difluorobenzyl)-1H-indol-3-yl]carbonyl}-3H-spiro[2-benzofuran-1,4′-piperidin]-3-one] stands 3.8 nM; under `O=C1OC2(CCN(C(=O)c3cn(Cc4cccc(F)c4)c4cc(Cl)ccc34)CC2)c2ccc(Br)cc21` [Example 151, 5-Bromo-1′-{[6-chloro-1-(3-fluorobenzyl)-1H-indol-3-yl]carbonyl}-3H-spiro[2-benzofuran-1,4′-piperidin]-3-one], 4.8 nM.

As to `O=C(Cn1cc(C(=O)N2CCC3(CC2)OC(=O)c2cc(Br)ccc23)c2ccc(Cl)cc21)c1cccc(F)c1` [Example 152, 5-Bromo-1′-({6-chloro-1-[2-(3-fluorophenyl)-2-oxoethyl]-1H-indol-3-yl}carbonyl)-3H-spiro[2-benzofuran-1,4′-piperidin]-3-one], the Ki was found to be 4.4 nM.

`O=C(Cn1cc(C(=O)N2CCC3(CC2)OC(=O)c2ccccc23)c2ccc(Cl)cc21)c1ccccc1F` [Example 153, 1′-({6-Chloro-1-[2-(2-fluorophenyl)-2-oxoethyl]-1H-indol-3-yl}carbonyl)-3H-spiro[2-benzofuran-1,4′-piperidin]-3-one]: the Ki was determined as 1 nM.

The molecule `O=C(Cn1cc(C(=O)N2CCC3(CC2)OC(=O)c2ccccc23)c2ccc(Cl)cc21)c1ccc(F)c(F)c1` [Example 154, 1′-({6-Chloro-1-[2-(3,4-difluorophenyl)-2-oxoethyl]-1H-indol-3-yl}carbonyl)-3H-spiro[2-benzofuran-1,4′-piperidin]-3-one] had a Ki of 1.3 nM.

Take `O=C1OC2(CCN(C(=O)c3cn(-c4cccc(F)c4)c4cc(Cl)ccc34)CC2)c2ccccc21` [Example 155, 1′-{[6-Chloro-1-(3-fluorophenyl)-1H-indol-3-yl]carbonyl}-3H-spiro[2-benzofuran-1,4′-piperidin]-3-one]: the inhibition constant (Ki) worked out at 5 nM. For `O=C1OC2(CCN(C(=O)c3cn(-c4ccccc4-c4ccccc4)c4cc(Cl)ccc34)CC2)c2ccccc21` [Example 157, 1′-[(1-Biphenyl-2-yl-6-chloro-1H-indol-3-yl)carbonyl]-3H-spiro[2-benzofuran-1,4′-piperidin]-3-one], the affinity, expressed as Ki, was 39.8 nM. On to `O=C1OC2(CCN(C(=O)c3cn(C(=O)c4cccc(-c5ccccc5)c4)c4cc(Cl)ccc34)CC2)c2ccccc21` [Example 158, 1′-{[1-(Biphenyl-3-ylcarbonyl)-6-chloro-1H-indol-3-yl]carbonyl}-3H-spiro[2-benzofuran-1,4′-piperidin]-3-one], for which the affinity corresponds to a Ki of 38.7 nM. In turn, `O=C1OC2(CCN(C(=O)c3cn(-c4ccccn4)c4cc(Cl)ccc34)CC2)c2ccccc21` [Example 159, 1-[(6-Chloro-1-pyridin-2-yl-1H-indol-3-yl)carbonyl]-3H-spiro[2-benzofuran-1,4′-piperidin]-3-one] had a Ki of 7.6 nM.

With `O=C1OC2(CCN(C(=O)c3cn(-c4ccccn4)c4cc(Cl)ccc34)CC2)c2ccc(F)cc21` [Example 160, 1-[(6-Chloro-1-pyridin-2-yl-1H-indol-3-yl)carbonyl]-5-fluoro-3H-spiro[2-benzofuran-1,4′-piperidin]-3-one], the Ki came to 5 nM. Take `Cc1cc(Cn2cc(C(=O)N3CCC4(CC3)OC(=O)c3cc(F)ccc34)c3ccc(Cl)cc32)ccn1` [Example 161, 1′-({6-Chloro-1-[(2-methylpyridin-4-yl)methyl]-1H-indol-3-yl}carbonyl)-5-fluoro-3H-spiro[2-benzofuran-1,4′-piperidin]-3-one]: the affinity corresponds to a Ki of 2.2 nM. Take `COCc1ncc(Cn2cc(C(=O)N3CCC4(CC3)OC(=O)c3cc(F)ccc34)c3ccc(Cl)cc32)c(N)n1` [Example 162, 1′-[(1-{[4-Amino-2-(methoxymethyl)pyrimidin-5-yl]methyl}-6-chloro-1H-indol-3-yl)carbonyl]-5-fluoro-3H-spiro[2-benzofuran-1,4′-piperidin]-3-one]: the Ki came out at 65.3 nM.
